Consider 9 compounds from ChEMBL document CHEMBL1151501, “A benzisothiazolone class of potent, selective mechanism-based inhibitors of human leukocyte elastase” (Bioorg Med Chem Lett, 1994).

Each structure is given as a SMILES string.

Assay [1] has as its target T1, Neutrophil elastase (Homo sapiens) (UniProt P08246).
T1 sequence (whole entry): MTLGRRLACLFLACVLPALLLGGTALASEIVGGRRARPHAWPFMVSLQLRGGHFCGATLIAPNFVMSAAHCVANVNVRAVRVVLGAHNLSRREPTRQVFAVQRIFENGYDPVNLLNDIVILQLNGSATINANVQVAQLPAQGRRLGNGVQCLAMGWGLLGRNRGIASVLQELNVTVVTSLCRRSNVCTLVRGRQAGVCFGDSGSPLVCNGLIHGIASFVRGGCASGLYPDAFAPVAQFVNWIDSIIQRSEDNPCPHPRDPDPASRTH
Description: Inhibition of human leukocyte elastase (HLE) expressed as K inactivation rate

Assay [2] deals with T1, Neutrophil elastase (Homo sapiens). This is another data set of the same source.
Description: Inhibition of human leukocyte elastase (HLE) expressed as K reactivation rate
For assay [3], the target named is T2, Neutrophil elastase (Homo sapiens, UniProt P08246).
T2 sequence (P08246 whole entry): T1 sequence (whole entry)
The assay is described as follows: Potency of Inhibition of human leukocyte elastase (HLE) expressed as apparent binding constant.

In the case of `CC(C)Oc1cccc2c1C(=O)N(CSc1nnnn1-c1ccccc1)S2(=O)=O`, the K inact in assay [1] was 8900 M⁻¹ s⁻¹. The Kreact in assay [2] worked out at 0.00016 s⁻¹. As for `O=C1c2c(Br)cccc2S(=O)(=O)N1CSc1nnnn1-c1ccccc1`, the Kreact in assay [2] is 0.00036 s⁻¹. In turn, `O=C1c2ccccc2S(=O)(=O)N1CSc1nnnn1C1CCCCC1` gave a K inact in assay [1] of 2500 M⁻¹ s⁻¹. The compound also showed a Kreact in assay [2] of 0.0001 s⁻¹.

In assay [1], `Cn1cnnc1SCN1C(=O)c2ccccc2S1(=O)=O` showed a K inact of 190 M⁻¹ s⁻¹. The compound also gave a Kreact in assay [2] of 4.7e-05 s⁻¹.

Take `Cn1nnnc1SCN1C(=O)c2ccccc2S1(=O)=O`: the K inact in assay [1] was found to be 1000 M⁻¹ s⁻¹. Further, the Kreact in assay [2] was 0.0001 s⁻¹. The corresponding values for `CCOc1cccc2c1C(=O)N(CSc1nnnn1-c1ccccc1)S2(=O)=O` are 45300 M⁻¹ s⁻¹ and 0.00014 s⁻¹. The corresponding values for `O=C1c2c(-c3ccccc3)cccc2S(=O)(=O)N1CSc1nnnn1-c1ccccc1` are 5800 M⁻¹ s⁻¹ and 0.0005 s⁻¹. Regarding `CC(C)(C)c1cccc2c1C(=O)N(CSc1nnnn1-c1ccccc1)S2(=O)=O`, the Ki in assay [3] stood at 2000 nM.

In assay [1], `CC(=O)OCN1C(=O)c2ccccc2S1(=O)=O` yielded a K inact of 630 M⁻¹ s⁻¹. This compound also came in with a Kreact in assay [2] of 0.0001 s⁻¹.
